# Measurements taken from the NIST ThermoML archive (doi:10.1016/j.tca.2005.05.013).
# Numbers after ± are expanded uncertainties.
# Conditions: Crystal; DTA
row,Normal melting temperature [°C],Structure (SMILES)
1,296.50 ± 10,"O=[N+]([O-])c1ccc2[nH]c3ccc([N+](=O)[O-])cc3c2c1 [3,6-dinitro-9H-carbazole]"
2,241.00 ± 10,"Nc1ccc2[nH]c3ccc(N)cc3c2c1 [3,6-diamino-9H-carbazole]"
